Test results taken from patent publication US20260256792A1, “TREATMENT OF CHRONIC SPONTANEOUS URTICARIA BY ADMINISTERING (R)-2-[3-[4-AMINO-3-(2-FLUORO-4-PHENOXY-PHENYL)PYRAZOLO[3,4-D]PYRIMIDIN-1-YL]PIPERIDINE-1-CARBONYL]-4-METHYL-4-[4-(OXETAN-3-YL)PIPERAZIN-1-YL]PENT-2-ENENITRILE” (priority 2023, published 2026).

System: moderate-to-severe chronic spontaneous urticaria (CSU)
Test: Phase 2 CSU study: itch severity score over 7 days (ISS7)
Type: in vivo, human
Excerpt: The study comprises a 12 week, randomized, double-blind, placebo-controlled, multi-center, dose-ranging efficacy and safety phase, followed by a 40 week open label extension (OLE) phase (see FIG. 1). The study consists of three phases and an optional OLE phase. […] Clinically, CSU is characterized by the spontaneous and recurrent appearance of pruritic hives. The proposed primary endpoints were the UAS7 at Week 12 in EU and EU reference countries and the ISS7 in the US. Regardless of where a participant was from, all assessments were the same. The UAS7 score is a composite score containing both the HSS7 and the ISS7. This allowed a global assessment of the two key components of urticaria: hives and itch. […] The UAS is a validated PRO measure. […] The daily UAS scores range from 0 to 6 point/day. […] Patients were to complete the UAS using the e-diary. […] The following secondary endpoints were to be analyzed using the same approach as for the primary endpoint: • Change from baseline in UAS7 at Week 4 • Change from baseline in UAS7 at Week 12 (for US and US reference countries) • Change from baseline in ISS7 at Week 12 (except US and US reference countries) • Change from baseline in HSS7 at Week 12

[1] = Omalizumab-naïve population, 400 mg BID (N = 35), double-blind period, last week block of Table 28 (week head not shown), WOCF imputation
[2] = Omalizumab-naïve population, 400 mg QPM (N = 37), double-blind period, last week block of Table 28 (week head not shown), WOCF imputation
[3] = Omalizumab-naïve population, 400 mg TID (N = 35), double-blind period, last week block of Table 28 (week head not shown), WOCF imputation
[4] = Patients with prior omalizumab use incl. incomplete responders, 400 mg TID (N = 6), double-blind period, last week block of Table 28 (week head not shown), WOCF imputation
[5] = Week 1, 400 mg BID, Omalizumab-Naïve
[6] = Week 1, 400 mg BID, Prior Omalizumab Use
[7] = Week 1, 400 mg QPM, Omalizumab-Naïve
[8] = Week 1, 400 mg QPM, Prior Omalizumab Use
[9] = Week 1, 400 mg TID, Omalizumab-Naïve
[10] = Week 1, 400 mg TID, Prior Omalizumab Use
[11] = Week 2, 400 mg BID, Omalizumab-Naïve

## CC(C)(C=C(C#N)C(=O)N1CCC[C@@H](n2nc(-c3ccc(Oc4ccccc4)cc3F)c3c(N)ncnc32)C1)N1CCN(C2COC2)CC1 [rilzabrutinib, (R)-2-[3-[4-amino-3-(2-fluoro-4-phenoxy-phenyl)pyrazolo[3,4-d]pyrimidin-1-yl]piperidine-1-carbonyl]-4-methyl-4-[4-(oxetan-3-yl)piperazin-1-yl]pent-2-enenitrile]
Omalizumab-Naïve, 400 mg TID, Week 5
  ISS7 Post-baseline Mean (SD): 6.92 (5.87)
Omalizumab-Naïve, 400 mg TID, Week 7
  ISS7 Post-baseline Mean (SD): 7.14 (5.35)
Omalizumab-Naïve, 400 mg TID, Week 8
  ISS7 Post-baseline Mean (SD): 7.24 (5.51)
Omalizumab-Naïve, 400 mg TID, Week 9
  ISS7 Post-baseline Mean (SD): 6.68 (5.31)
Omalizumab-Naïve, 400 mg TID, Week 10
  ISS7 Post-baseline Mean (SD): 6.75 (5.25)
Omalizumab-Naïve, 400 mg TID, Week 11
  ISS7 Post-baseline Mean (SD): 6.99 (5.53)
Omalizumab-Naïve, 400 mg TID, Week 12
  ISS7 Post-baseline Mean (SD): 5.77 (5.26)
[1]
  ISS7 Change from baseline Mean (SD): −6.60 (7.33)
  ISS7 Change from baseline Median: −8.00
  ISS7 Percent change from baseline Mean (SD): −46.22 (56.25) %
  ISS7 Percent change from baseline Median: −53.33%
  ISS7 change from baseline, Max: 2.0
  ISS7 change from baseline, Min: −14.0
  ISS7 change from baseline, Q1: −13.00
  ISS7 change from baseline, Q3: 0.00
  ISS7 percent change from baseline, Max: 22.2%
  ISS7 percent change from baseline, Min: −100.0%
  ISS7 percent change from baseline, Q1: −100.00%
  ISS7 percent change from baseline, Q3: 0.00%
[2]
  ISS7 Change from baseline Mean (SD): −11.40 (8.46)
  ISS7 Change from baseline Median: −14.00
  ISS7 Percent change from baseline Mean (SD): −66.19 (45.96) %
  ISS7 Percent change from baseline Median: −83.33%
  ISS7 change from baseline, Max: 0.0
  ISS7 change from baseline, Min: −20.0
  ISS7 change from baseline, Q1: −19.00
  ISS7 change from baseline, Q3: 0.00
  ISS7 percent change from baseline, Max: 0.0%
  ISS7 percent change from baseline, Min: −100.0%
  ISS7 percent change from baseline, Q1: −100.00%
  ISS7 percent change from baseline, Q3: 0.00%
[3]
  ISS7 Change from baseline Mean (SD): −6.20 (3.70)
  ISS7 Change from baseline Median: −7.00
  ISS7 Percent change from baseline Mean (SD): −38.05 (24.78) %
  ISS7 Percent change from baseline Median: −47.37%
  ISS7 change from baseline, Max: 0.0
  ISS7 change from baseline, Q1: −9.00
  ISS7 change from baseline, Q3: −6.00
  ISS7 percent change from baseline, Max: 0.0%
  ISS7 percent change from baseline, Min: −64.3%
  ISS7 percent change from baseline, Q1: −50.00%
  ISS7 percent change from baseline, Q3: −28.57%
[4]
  ISS7 Change from baseline Mean (SD): −1.50 (2.12)
  ISS7 Change from baseline Median: −1.50
  ISS7 Percent change from baseline Mean (SD): −18.75 (26.52) %
  ISS7 Percent change from baseline Median: −18.75%
  ISS7 change from baseline, Max: 0.0
  ISS7 change from baseline, Min: −3.0
  ISS7 change from baseline, Q1: −3.00
  ISS7 change from baseline, Q3: 0.00
  ISS7 percent change from baseline, Max: 0.0%
  ISS7 percent change from baseline, Min: −37.5%
  ISS7 percent change from baseline, Q1: −37.50%
  ISS7 percent change from baseline, Q3: 0.00%
[5]
  ISS7 Change from baseline Mean (SD): −4.94 (4.65)
  ISS7 Change from baseline Median: −4.00
  ISS7 Median: 12.00
  ISS7 Percent change from baseline Mean (SD): −33.91 (34.62) %
  ISS7 Percent change from baseline Median: −25.00%
[6]
  ISS7 Change from baseline Mean (SD): −6.33 (5.82)
  ISS7 Change from baseline Median: −4.50
  ISS7 Median: 13.00
  ISS7 Percent change from baseline Mean (SD): −35.93 (34.83) %
  ISS7 Percent change from baseline Median: −23.02%
[7]
  ISS7 Change from baseline Mean (SD): −3.30 (4.93)
  ISS7 Change from baseline Median: −3.00
  ISS7 Mean (SD): 13.08 (4.52)
  ISS7 Median: 14.00
  ISS7 Percent change from baseline Mean (SD): −17.96 (28.66) %
  ISS7 Percent change from baseline Median: −19.05%
[8]
  ISS7 Change from baseline Mean (SD): −8.00 (NC)
  ISS7 Change from baseline Median: −8.00
  ISS7 Mean (SD): 13.00 (NC)
  ISS7 Median: 13.00
  ISS7 Percent change from baseline Mean (SD): −38.10 (NC) %
  ISS7 Percent change from baseline Median: −38.10%
[9]
  ISS7 Change from baseline Mean (SD): −6.17 (5.49)
  ISS7 Change from baseline Median: −5.00
  ISS7 Mean (SD): 9.51 (5.64)
  ISS7 Median: 9.00
  ISS7 Percent change from baseline Mean (SD): −38.58 (33.51) %
  ISS7 Percent change from baseline Median: −31.37%
[10]
  ISS7 Change from baseline Mean (SD): −9.67 (5.32)
  ISS7 Change from baseline Median: −9.00
  ISS7 Mean (SD): 7.33 (5.43)
  ISS7 Median: 7.00
  ISS7 Percent change from baseline Mean (SD): −58.16 (26.72) %
  ISS7 Percent change from baseline Median: −66.07%
[11]
  ISS7 Change from baseline Mean (SD): −5.00 (4.40)
  ISS7 Change from baseline Median: −5.00
  ISS7 Mean (SD): 10.32 (5.64)
